Reference: PubChem BioAssay (NCI)
“And” between values parts separate entries of the source, which are not always exact repeats. Equal values may be shown once.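 Each compound was tested at five concentrations against cells in 96-well plates for 48 hours. GI50 = concentration required for 50% inhibition of growth. TGI: concentration producing complete growth inhibition.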

Key:
Assay in all cases: NCI anticancer screen, dose series, 48 h
[1] = tested on: HOP-62 NSCLC
[2] = tested on: NCI-H460 lung
[3] = tested on: T-47D breast
[4] = tested on: SW-620 colon
[5] = tested on: KM12 colon
[6] = tested on: PC-3 prostate
[7] = tested on: UO-31 renal
[8] = tested on: HCT-15 colon
[9] = tested on: CAKI-1 renal
[10] = tested on: SN12C renal

O=c1/c(=C\c2ccc(Br)cc2)sc2n1C(c1ccc(Br)cc1)C1=C(N=2)c2ccc3ccccc3c2OCC1 (stereo unspecified)
GI50 [1]: > 100000 nM
TGI [1]: > 100000 nM
GI50 [2]: > 100000 nM
TGI [2]: > 100000 nM
GI50 [3]: > 100000 nM
TGI [3]: > 100000 nM
GI50 [4]: > 100000 nM
TGI [4]: > 100000 nM
GI50 [5]: > 100000 nM
TGI [5]: > 100000 nM
GI50 [6]: > 100000 nM
TGI [6]: > 100000 nM
GI50 [7]: > 100000 nM
TGI [7]: > 100000 nM
GI50 [8]: > 100000 nM
TGI [8]: > 100000 nM

COc1ccc(/C=C\c2cc(OC)c(OC)c(OC)c2)c(NS(=O)(=O)c2ccc(F)cc2)c1O
GI50 [1]: 610 nM
TGI [1]: > 100000 nM
GI50 [2]: 41.9 nM
TGI [2]: 26100 nM
GI50 [9]: 115 nM
TGI [9]: > 100000 nM
GI50 [3]: 38500 nM
TGI [3]: > 100000 nM
GI50 [4]: 43.4 nM
TGI [4]: > 100000 nM
GI50 [10]: 180 nM
TGI [10]: > 100000 nM
GI50 [5]: 55.6 nM
TGI [5]: > 100000 nM
GI50 [6]: 42.8 nM
TGI [6]: > 70800 nM
GI50 [7]: 333 nM
TGI [7]: > 82900 nM
GI50 [8]: 75.2 nM
TGI [8]: > 100000 nM

O=C(NN1C(=O)CSC1c1c(Cl)cccc1Cl)C(O)c1ccccc1 (stereo unspecified)
GI50 [1]: > 100000 nM
TGI [1]: > 100000 nM
GI50 [2]: 40400 nM
TGI [2]: > 100000 nM
GI50 [9]: 23900 nM
TGI [9]: > 100000 nM
GI50 [3]: 40400 nM
TGI [3]: > 100000 nM
GI50 [4]: 71800 nM
TGI [4]: > 100000 nM
GI50 [10]: 34900 nM
TGI [10]: > 100000 nM
GI50 [5]: 34200 nM
TGI [5]: > 100000 nM
GI50 [6]: 29600 nM
TGI [6]: > 100000 nM
GI50 [7]: 29300 nM
TGI [7]: > 100000 nM
GI50 [8]: 30500 nM
TGI [8]: > 100000 nM

COc1cc2c(cc1OCCCN1CCN(C(=S)SCCC(C#N)(c3ccccc3)c3ccccc3)CC1)N=C[C@@H]1CCCN1C2=O
GI50 [1]: 121 nM
TGI [1]: 456 nM
GI50 [2]: 891 nM
GI50 [9]: 357 nM
TGI [9]: 1480 nM
GI50 [3]: 1580 nM
GI50 [4]: 514 nM
TGI [4]: 1940 nM
GI50 [10]: 820 nM
TGI [10]: 2500 nM
GI50 [5]: 1640 nM
GI50 [6]: 1450 nM
TGI [6]: > 100000 nM
GI50 [7]: 1100 nM
TGI [7]: 2320 nM
GI50 [8]: 1680 nM
TGI [8]: 3480 nM

COc1cc2c(cc1-c1coc3cc(O)ccc3c1=O)OCO2
TGI [1]: 33300 nM
TGI [2]: 32000 nM
TGI [9]: 51100 nM
TGI [3]: 65600 nM
TGI [4]: > 100000 nM
TGI [10]: 67200 nM
TGI [5]: > 100000 nM
TGI [6]: > 100000 nM
TGI [7]: 58400 nM
TGI [8]: 35600 nM

COC(=O)Nc1nc2ccc(C(=O)c3ccc(F)cc3)cc2[nH]1
GI50 [1]: 682 nM
TGI [1]: 29100 nM
GI50 [2]: 336 nM
TGI [2]: > 100000 nM
GI50 [9]: 2340 nM
TGI [9]: > 36400 nM
GI50 [3]: 338 nM
TGI [3]: > 100000 nM
GI50 [4]: 92.2 nM
TGI [4]: > 100000 nM
GI50 [10]: 841 nM
TGI [10]: > 100000 nM
GI50 [6]: 226 nM
TGI [6]: > 100000 nM
GI50 [7]: 2290 nM
TGI [7]: > 100000 nM
GI50 [8]: 90.9 nM
TGI [8]: > 100000 nM

CC1[C@@H]2CC=C3[C@H]4CCC5Cc6nc7c(nc6C[C@@]5(C)C4CC(=O)[C@]32CO[C@]12OC(C)(C)CC2O)CC1CC[C@@H]2C3=C[C@H]4O[C@@]5(O[C@@](C)(CO)C[C@@H]5O)C(C)[C@@]4(O)[C@]3(C)[C@@H](O)CC2[C@]1(C)C7 (stereo partly specified)
GI50 [1]: 0.24 nM and 0.365 nM
TGI [1]: 2.48 nM and 6.09 nM
GI50 [2]: 0.268 nM and 0.365 nM
TGI [2]: 13 nM and 116 nM
GI50 [3]: 246 nM
GI50 [4]: 0.982 nM and 2.04 nM
TGI [4]: 26.2 nM and 52.6 nM
GI50 [10]: 295 nM
TGI [10]: 906 nM and > 3650 nM
GI50 [5]: 1.88 nM and 0.966 nM
TGI [5]: 78.8 nM and 84.8 nM
GI50 [6]: 0.287 nM
TGI [6]: 27.4 nM
GI50 [8]: 4.1 nM and 7.63 nM
TGI [8]: 102 nM and 129 nM

Cc1c(C(=O)c2ccccc2)[n+](=O)c2cc(F)c(F)cc2n1[O-]
GI50 [1]: 1840 nM
TGI [1]: 3400 nM
GI50 [2]: 2270 nM
TGI [2]: 5170 nM
GI50 [9]: 1880 nM
TGI [9]: 3450 nM
GI50 [3]: 3700 nM
TGI [3]: 20100 nM
GI50 [4]: 1430 nM
TGI [4]: 3140 nM
GI50 [5]: 11400 nM
TGI [5]: 25000 nM
GI50 [6]: 3370 nM
TGI [6]: 14100 nM
GI50 [7]: 2040 nM
TGI [7]: 4130 nM
GI50 [8]: 511 nM
TGI [8]: 1640 nM

NC(=O)c1csc(-c2ccc(CO)o2)n1
TGI [2]: > 100000 nM
TGI [9]: > 100000 nM
TGI [3]: > 100000 nM
TGI [4]: > 100000 nM
TGI [10]: > 100000 nM
TGI [5]: > 100000 nM
TGI [6]: > 100000 nM
TGI [7]: > 100000 nM
TGI [8]: > 100000 nM

CC1(C)C(CC(=O)O)CCCC1CC(=O)O (stereo unspecified)
TGI [1]: > 100000 nM
TGI [9]: > 100000 nM
TGI [3]: > 100000 nM
TGI [4]: > 100000 nM
TGI [10]: > 100000 nM
TGI [5]: > 100000 nM
TGI [6]: > 100000 nM
TGI [7]: > 100000 nM
TGI [8]: > 100000 nM

CCN(CC)CC(O)c1cc(-c2ccc(Cl)cc2)nc2c(C)c(Cl)ccc12 (stereo unspecified)
GI50 [1]: 1570 nM
TGI [1]: 2960 nM
GI50 [9]: 1290 nM
TGI [9]: 2690 nM
GI50 [3]: 1590 nM
TGI [3]: 3120 nM
GI50 [10]: 1500 nM
TGI [10]: 3220 nM
GI50 [5]: 1720 nM
TGI [5]: 3140 nM
GI50 [6]: 1600 nM
TGI [6]: 2970 nM
GI50 [7]: 549 nM
TGI [7]: 2160 nM
